According to patent US20030027722A1, “Influencing the activity of plant growth regulators” (priority 1998, published 2003):

How the values were obtained:
[1] = system: tobacco; assay: cell division in tobacco; assay type: cell-based; details: elicitor 10^−10 M
Description: (§1) The elicitor uridine was tested on shoot regeneration in saintpaulia, lateral root formation in pea, cell division in tobacco and root induction in larkspur and apple.

[2] = system: pea; assay: lateral root formation in pea; assay type: in vivo; details: elicitor 10^−8 to 10^−16 M
Description: as §1

[3] = system: saintpaulia; assay: shoot regeneration in saintpaulia; assay type: cell-based; details: elicitor 10^−10 M
Description: as §1

[4] = system: larkspur; assay: root induction in larkspur; assay type: in vivo; details: root formation larkspur, elicitor 10^−10 M
Description: as §1

[5] = system: apple stalk slices; assay: rooting regeneration on apple stalk slices with elicitors; assay type: cell-based; details: elicitor 10^−10 M; apple stalk slices
Description: The effect of the elicitors on rooting regeneration on apple stalk slices was studied. The stalk slices were incubated on medium with elicitors in combination with a sub-optimal auxin concentration (1 μM indolebutyric acid or 1 μM indoleacetic acid) which were added for 1 or 3 days to the plant tissue for testing. The increase was measured in the number of regenerated roots compared to the auxin control.

O=c1ccn([C@@H]2O[C@H](CO)[C@@H](O)[C@H]2O)c(=O)[nH]1 [uridine]
increased regeneration in relation to control (auxin alone) [1]: 75%
increased regeneration in relation to control (auxin alone) [2]: 100%
increased regeneration in relation to control (auxin alone) [3]: 100%
increased regeneration in relation to control (auxin alone) [4]: 50%
increased regeneration in relation to control (auxin alone) [5]: 75%
